For data set [1], the system named is T cells isolated from mouse spleens. Nature of the data set: T cell proliferation inhibition (CFSE flow cytometry, anti-CD3/anti-CD28 stimulation). Type of data set: cell-based. To be noted: mouse spleen T cells, 3 days; for inhibition at 0.01 µM / inhibition at 0.1 µM / inhibition at 1 µM / inhibition at 10 µM / inhibition at 30 µM / inhibition at 50 µM: Mus musculus, T-cell, 72 h, read-out: Proliferation inhibition rate (%). The method in brief:
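Proliferation inhibition (%) came from flow cytometry of CFSE dilution after 3 days' culture at 37 °C with compound (10 nM, 100 nM, 1, 10, 30, 50 μM; triplicate wells). Cells were magnetically purified T cells from C57BL/6 mouse spleens, 2×10^5 per well, stimulated with 0.5 μg/mL each anti-CD3 and anti-CD28.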

Data set [2] has as its system Human B Lymphocyte cell line, SU-DHL-8. Nature of the data set: Relative cell viability CCK-8, SU-DHL-8. To be noted: for viability at 1 µM / viability at 10 µM / viability at 30 µM / viability at 50 µM: Homo sapiens, SU-DHL-8, 48 h; for viability at 1 µM: read-out: Relative cell viability (%), SU-DHL-8, 1 μM; for viability at 10 µM: read-out: Relative cell viability (%), SU-DHL-8, 10 μM; for viability at 30 µM: read-out: Relative cell viability (%), SU-DHL-8, 30 μM; for viability at 50 µM: read-out: Relative cell viability (%), SU-DHL-8, 50 μM. Type of data set: cell-based. Here is the method: Human-derived B lymphoma cell line SU-DHL-8 (Cat. #CRL-2961) purchased from ATCC was cultured in RPMI-1640 medium containing 10% FBS, 100 U/mL penicillin, and 100 μg/mL streptomycin.
The cell culture medium was then harvested, centrifuged at 1,300 rpm for 5 minutes, and the supernatant was removed. The cells were resuspended in the same medium and dispensed into a 96-well plate (Costar 96-well cell culture plate, Corning) at 90 μL per well, resulting in the conditions specified in Table 5.
Then, 10 μL of CCK-8 was added to each well, and the plates were incubated again at 37° C. in a 5% CO2 incubator for 4 hours.
In other words, when the survival rate of untreated cells (DMSO) is set at 100%, the relative cell survival rate in each group treated with the drug at different concentrations is indicated.

The mark [3] stands for this setting: 1 μM, 48 hours, untreated (DMSO) = 100%.
Where [4] appears, read: 10 μM, 48 hours, untreated (DMSO) = 100%.
Where [5] appears, read: 30 μM, 48 hours, untreated (DMSO) = 100%.
[6] abbreviates: 48 hours, untreated (DMSO) = 100%.

Regarding `CC1CN(CCCCCCCCCCCCNC(=O)c2cccnc2N)CC(C)O1` (centres unmarked) [Compound 21, 2-Amino-N-(12-(2,6-dimethylmorpholino)dodecyl) nicotinamide], the “Proliferation inhibition rate (%)” value in data set [1] (compound 10 nM) is −13.87%; in data set [1] (compound 100 nM) it was 100.00%; in data set [1] (compound 1 μM), 100.00%; in data set [1] (compound 10 μM), 100.00%; in data set [1] (compound 30 μM), 100.00%; in data set [1] (compound 50 μM) it was 100.00%. For the same molecule, the entries for the “Relative cell viability (%), SU-DHL-8” value in data set [2] (setting [3]), in data set [2] (setting [4]) and in data set [2] (setting [5]) were 9.64%, 7.68% and 3.70%, respectively.
For the molecule `Nc1ncccc1C(=O)NCCCCCCCCF` [Compound 61, 2-Amino-N-(8-fluoro-octyl)-nicotinamide], in data set [1] (compound 10 nM), the inhibition at 0.01 µM is -10.2%. In addition, the inhibition at 0.1 µM in data set [1] (compound 100 nM) was -6.37%. The inhibition at 1 µM in data set [1] (compound 1 μM) was -5.75%. Besides, the inhibition at 10 µM in data set [1] (compound 10 μM) came to 34.9%. Also, the inhibition at 30 µM in data set [1] (compound 30 μM) amounted to 85.4%. The inhibition at 50 µM in data set [1] (compound 50 μM) was 93.2%. Also, in data set [2] (setting [6]), the viability at 1 µM came out at 48.8%, the viability at 10 µM is 36.4%, the viability at 30 µM was 42% and the viability at 50 µM was determined as 21%.
`CC1CNCCN1CCCCCCCCCCCCNC(=O)c1cccnc1N` (centres unmarked) [Compound 35, 2-Amino-N-(12-(2-methylpiperazin-1-yl)dodecyl) nicotinamide]: the “Proliferation inhibition rate (%)” value is 8.33% in data set [1] (compound 10 nM); 100.00% in data set [1] (compound 100 nM); 100.00% in data set [1] (compound 1 μM); 100.00% in data set [1] (compound 10 μM); 100.00% in data set [1] (compound 30 μM); 100.00% in data set [1] (compound 50 μM). Also, the figures for the “Relative cell viability (%), SU-DHL-8” value in data set [2] (setting [3]), in data set [2] (setting [4]) and in data set [2] (setting [5]) were 1.18%, 0.64% and 0.42%, respectively.
As for `Nc1ncccc1C(=O)NCCCCCCCCCCF` [Compound 68, 2-Amino-N-(10-fluoro-decyl)-nicotinamide], in data set [2] (setting [6]), the viability at 1 µM is 16.1% and the viability at 10 µM is 15.3%. Further, the “Relative cell viability (%), SU-DHL-8” value in data set [2] (human, 48 h, 30 µM) is −2.90%. The “Relative cell viability (%), SU-DHL-8” value in data set [2] (human, 48 h, 50 µM) is recorded as −5.64%.
Turning to `O=C(NCCCCCCCCCCCCF)c1ncccc1O` [Compound 64, 3-Hydroxy-pyridine-2-carboxylic acid (12-fluoro-dodecyl)-amide], the inhibition at 0.01 µM in data set [1] (compound 10 nM) is -4.11%. The inhibition at 0.1 µM in data set [1] (compound 100 nM) was determined as 8.63%. For the same molecule, the inhibition at 1 µM in data set [1] (compound 1 μM) stood at 6.99%. Also, in data set [1] (compound 10 μM), the inhibition at 10 µM was 8.94%. Moreover, the inhibition at 30 µM in data set [1] (compound 30 μM) turned out to be 80.4%. Further, the inhibition at 50 µM in data set [1] (compound 50 μM) turned out to be 97%. Also, in data set [2] (setting [6]), the viability at 1 µM was found to be 23.3%, the viability at 10 µM was found to be 14.1%, the viability at 30 µM was determined as 6.51% and the viability at 50 µM amounted to 6.33%.
Consider `Nc1ncccc1C(=O)NCCCCCCCCCCCF` [Compound 70, 2-Amino-N-(11-fluoro-undecyl)-nicotinamide], for which, in data set [2] (setting [6]), the viability at 1 µM was determined as 5.01%, the viability at 10 µM came to 4.94% and the viability at 30 µM is 1.45%. Further, the “Relative cell viability (%), SU-DHL-8” value in data set [2] (human, 48 h, 50 µM) is listed as −0.57%.
In the case of `CN1CCN(C(=O)OC(C)(C)C)CC1CCCCCCCCNC(=O)c1cccnc1N` (centres unmarked) [Compound 12, tert-Butyl 3-(8-(2-aminonicotinamido)octyl)-4-methylpiperazine-1-carboxylate], in data set [2] (setting [6]), the viability at 1 µM turned out to be 7.6%, the viability at 10 µM is 3.79%, the viability at 30 µM was 1.64% and the viability at 50 µM was determined as 1.13%.
In the case of `C[C@H]1CNCCN1CCCCCCCCCCCCNC(=O)c1cccnc1N.Cl` [Compound 37, (S)-2-Amino-N-(12-(2-methylpiperazin-1-yl)dodecyl) nicotinamide hydrochloride], the “Proliferation inhibition rate (%)” value is on record as −4.14% in data set [1] (compound 10 nM); 33.33% in data set [1] (compound 100 nM); 100.00% in data set [1] (compound 1 μM); 100.00% in data set [1] (compound 10 μM); 100.00% in data set [1] (compound 30 μM); 100.00% in data set [1] (compound 50 μM). Moreover, the “Relative cell viability (%), SU-DHL-8” value in data set [2] (setting [3]) worked out at 6.38%; in data set [2] (setting [4]) it was 4.45%; in data set [2] (setting [5]), 3.17%; in data set [2] (50 μM, 48 hours, untreated (DMSO) = 100%), 2.32%.
For `Cl.Nc1ncccc1C(=O)NCCCCCCCCCCCF` [Compound 71, 3-(11-fluoro-undecylcarbamoyl)-pyridin-2-yl-ammonium chloride], in data set [2] (setting [6]), the viability at 50 µM was 0.75%. Further, the “Relative cell viability (%), SU-DHL-8” value in data set [2] (human, 48 h, 1 µM) worked out at 5.57%; in data set [2] (human, 48 h, 10 µM), 4.05%; in data set [2] (human, 48 h, 30 µM), 2.04%.
For `COc1ccc(C(=O)NCCCCCCCCCCCCN2CCN(C)CC2)nc1` [Compound 204, 5-methoxy-N-(12-(4-methylpiperazin-1-yl)dodecyl)picolinamide], the inhibition at 0.01 µM in data set [1] (compound 10 nM) was -2.6%. For the same molecule, the inhibition at 0.1 µM in data set [1] (compound 100 nM) is -0.14%. In addition, in data set [1] (compound 1 μM), the inhibition at 1 µM is 12.3%. For the same molecule, the inhibition at 10 µM in data set [1] (compound 10 μM) was 95%. Besides, the inhibition at 30 µM in data set [1] (compound 30 μM) came out at 100%. The inhibition at 50 µM in data set [1] (compound 50 μM) was 100%.
`O=C(NCCCCCCCCCCCCF)c1ccncc1Nc1cccc(C(F)(F)F)c1` [Compound 59, N-(12-fluoro-dodecyl)-3-(3-trifluoromethyl-phenylamino)-isonicotinamide]: the inhibition at 0.01 µM in data set [1] (compound 10 nM) was found to be 0%. Further, in data set [1] (compound 100 nM), the inhibition at 0.1 µM turned out to be 0%. In addition, the inhibition at 1 µM in data set [1] (compound 1 μM) worked out at 0%. Also, the inhibition at 10 µM in data set [1] (compound 10 μM) was -8.32%. In addition, in data set [1] (compound 30 μM), the inhibition at 30 µM is 78.4%. Moreover, the inhibition at 50 µM in data set [1] (compound 50 μM) was 99.8%.
With `N#CCCCCCCCCCCNC(=O)c1ccccc1Br` [Compound 77, 2-Bromo-N-(10-cyano-decyl)benzamide], the inhibition at 0.01 µM in data set [1] (compound 10 nM) worked out at 1.51%. Moreover, in data set [1] (compound 100 nM), the inhibition at 0.1 µM is -3.97%. Also, the inhibition at 1 µM in data set [1] (compound 1 μM) came to 15.3%. The inhibition at 10 µM in data set [1] (compound 10 μM) worked out at 2.09%. Moreover, in data set [1] (compound 30 μM), the inhibition at 30 µM amounted to 3.8%. Further, the inhibition at 50 µM in data set [1] (compound 50 μM) was found to be 32.2%.
`COc1cccc(OC)c1C(=O)NCCCCCCCCCCCCN1CCN(C)CC1` [Compound 218, 2,6-Dimethoxy-N-(12-(4-methylpiperazin-1-yl)dodecyl)benzamide]: the inhibition at 0.01 µM in data set [1] (compound 10 nM) worked out at 1.31%. Besides, the inhibition at 0.1 µM in data set [1] (compound 100 nM) came to 2.74%. The inhibition at 1 µM in data set [1] (compound 1 μM) was 12.4%. For the same molecule, the inhibition at 10 µM in data set [1] (compound 10 μM) stood at 100%. In addition, the inhibition at 30 µM in data set [1] (compound 30 μM) came out at 100%. Further, the inhibition at 50 µM in data set [1] (compound 50 μM) worked out at 100%.
On to `Nc1ncccc1C(=O)NCCCCCCCCCCCCN1CCN(CC2CCCCC2)CC1` [Compound 113, 2-amino-N-(12-(4-(cyclohexylmethyl)piperazin-1-yl)dodecyl)nicotinamide], for which the inhibition at 0.01 µM in data set [1] (compound 10 nM) came out at 11.1%. Besides, the inhibition at 0.1 µM in data set [1] (compound 100 nM) worked out at 100%. For the same molecule, in data set [1] (compound 1 μM), the inhibition at 1 µM was 100%. In data set [1] (compound 10 μM), the inhibition at 10 µM amounted to 100%. Also, in data set [1] (compound 30 μM), the inhibition at 30 µM amounted to 100%. In addition, the inhibition at 50 µM in data set [1] (compound 50 μM) amounted to 100%.
Turning to `Nc1ncccc1C(=O)NCCCCCCCCCCCCN1CCc2ccccc2C1` [Compound 17, 2-Amino-N-(12-(3,4-dihydroisoquinolin-2 (1H)-yl)dodecyl) nicotinamide], the “Proliferation inhibition rate (%)” value in data set [1] (compound 10 nM, listed as PBK-2024-004, 0.01 µM) was 0.00%; in data set [1] (compound 100 nM, listed as PBK-2024-004, 0.1 µM) it was −14.00%; in data set [1] (compound 1 μM, listed as PBK-2024-004, 1 µM), 100.00%; in data set [1] (compound 10 μM, listed as PBK-2024-004, 10 µM), 100.00%.

The values are drawn from patent publication US20260183274A1, “PDK1 REGULATORY COMPOUND AND COMPOSITION CONTAINING THE SAME” (PROVIBIO CO., LTD., priority 2024, published 2026).
